The record followed here is patent US9938273B2 (Plexxikon Inc., priority 2015, dated 2018).

The target of one assay is T1, FLT3-D835Y (Homo sapiens, UniProt P36888, D835Y).
T1 construct: purchased Invitrogen PV3967
T1 sequence (P36888 27-993 D835Y): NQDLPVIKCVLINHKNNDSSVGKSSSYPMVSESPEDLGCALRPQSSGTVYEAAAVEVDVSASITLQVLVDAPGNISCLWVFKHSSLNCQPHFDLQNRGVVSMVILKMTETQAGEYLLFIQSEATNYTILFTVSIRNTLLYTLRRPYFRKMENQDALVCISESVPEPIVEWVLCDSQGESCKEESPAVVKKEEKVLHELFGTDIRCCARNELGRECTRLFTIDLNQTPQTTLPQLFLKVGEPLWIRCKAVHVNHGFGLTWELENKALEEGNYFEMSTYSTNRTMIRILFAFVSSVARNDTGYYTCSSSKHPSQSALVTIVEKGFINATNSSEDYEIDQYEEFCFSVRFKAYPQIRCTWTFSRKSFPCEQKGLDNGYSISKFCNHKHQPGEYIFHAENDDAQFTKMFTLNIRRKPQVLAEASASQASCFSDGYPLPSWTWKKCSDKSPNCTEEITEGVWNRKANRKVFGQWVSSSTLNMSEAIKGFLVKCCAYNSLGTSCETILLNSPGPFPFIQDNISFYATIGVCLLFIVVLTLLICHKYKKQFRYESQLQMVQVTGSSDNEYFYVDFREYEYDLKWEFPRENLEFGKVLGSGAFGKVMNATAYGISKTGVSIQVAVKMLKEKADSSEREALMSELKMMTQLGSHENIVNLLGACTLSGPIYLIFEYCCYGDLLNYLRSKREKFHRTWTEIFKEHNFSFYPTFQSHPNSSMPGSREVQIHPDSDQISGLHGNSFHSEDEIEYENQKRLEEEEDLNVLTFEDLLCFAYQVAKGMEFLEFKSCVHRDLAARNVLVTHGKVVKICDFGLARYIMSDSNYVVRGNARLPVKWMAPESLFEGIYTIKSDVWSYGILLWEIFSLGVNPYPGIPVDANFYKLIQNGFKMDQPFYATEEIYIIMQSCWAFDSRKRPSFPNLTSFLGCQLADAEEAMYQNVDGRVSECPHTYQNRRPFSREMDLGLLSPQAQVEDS
As to the kind of experiment: AlphaScreen kinase assay with recombinant enzyme, FLT3-D835Y. Type of assay: biochemical. Conditions: 8pt, GMean. A digest of the protocol:
(§1)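 Inhibition was measured as a drop in AlphaScreen signal arising from phosphotyrosine-bead capture of a biotinylated poly(Glu4-Tyr) peptide (30 nM) phosphorylated by recombinant kinase. For IC50 work the stated final concentration was 10 μM for the FLT3 mutants and 100 μM for c-KIT.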

For another assay, the target named is T2, FLT3-ITD (Homo sapiens, UniProt P36888).
T2 sequence (P36888 1-993): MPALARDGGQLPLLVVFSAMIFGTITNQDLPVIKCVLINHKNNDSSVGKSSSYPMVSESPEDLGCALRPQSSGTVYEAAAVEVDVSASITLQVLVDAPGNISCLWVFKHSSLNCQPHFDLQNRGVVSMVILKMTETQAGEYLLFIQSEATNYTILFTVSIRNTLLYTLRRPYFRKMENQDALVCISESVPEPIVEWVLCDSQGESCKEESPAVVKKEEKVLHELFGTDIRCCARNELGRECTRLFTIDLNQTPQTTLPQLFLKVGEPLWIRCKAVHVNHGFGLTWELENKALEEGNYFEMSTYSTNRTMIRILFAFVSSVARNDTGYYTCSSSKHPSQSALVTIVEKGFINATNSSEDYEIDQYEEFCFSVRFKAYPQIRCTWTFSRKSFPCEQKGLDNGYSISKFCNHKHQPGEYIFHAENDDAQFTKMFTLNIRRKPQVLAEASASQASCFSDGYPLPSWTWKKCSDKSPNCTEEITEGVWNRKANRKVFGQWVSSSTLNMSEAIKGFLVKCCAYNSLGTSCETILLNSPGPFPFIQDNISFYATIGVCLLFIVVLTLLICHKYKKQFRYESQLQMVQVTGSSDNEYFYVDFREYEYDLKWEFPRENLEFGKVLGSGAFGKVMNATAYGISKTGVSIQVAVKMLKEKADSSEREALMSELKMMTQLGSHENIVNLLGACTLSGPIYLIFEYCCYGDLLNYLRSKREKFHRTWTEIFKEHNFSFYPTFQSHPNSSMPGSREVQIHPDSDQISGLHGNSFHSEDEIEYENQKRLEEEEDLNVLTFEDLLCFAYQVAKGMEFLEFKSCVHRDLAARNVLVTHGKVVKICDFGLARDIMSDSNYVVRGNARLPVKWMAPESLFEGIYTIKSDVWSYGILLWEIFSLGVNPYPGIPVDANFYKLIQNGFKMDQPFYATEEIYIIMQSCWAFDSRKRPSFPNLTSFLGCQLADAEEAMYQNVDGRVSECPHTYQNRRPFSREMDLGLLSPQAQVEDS
Nature of the assay: AlphaScreen kinase assay with recombinant enzyme, FLT3-ITD. In kind it is biochemical. The settings on record: 8pt; read-out: FLT3_ITD 8pt: IC50. The essentials: as §1
On the technique in general: Alpha assays give light when donor and acceptor beads are brought close together.

As usually defined, the IC50 is the concentration needed to halve the response being measured.

Consider `CC(C)(C#N)NC(=O)c1cccc(-c2cnc3[nH]c(-c4cnc(C5CC5)nc4)cc3c2)n1` [Compound P-0166, N-(1-cyano-1-methyl-ethyl)-6-[2-(2-cyclopropylpyrimidin-5-yl)-1H-pyrrolo[2,3-b]pyridin-5-yl]pyridine-2-carboxamide], for which the half-inhibitory concentration (IC50) on FLT3-D835Y and at FLT3-ITD was 0.0001 to 10 µM throughout.

For the compound `CC(C)(C#N)CNC(=O)c1cccc(-c2cnc3[nH]c(-c4ccnc(C5CC5)c4)cc3c2)n1` [Compound P-0152, N-(2-cyano-2-methyl-propyl)-6-[2-(2-cyclopropyl-4-pyridyl)-1H-pyrrolo[2,3-b]pyridin-5-yl]pyridine-2-carboxamide], the IC50 on FLT3-D835Y and on FLT3-ITD was 0.0001 to 10 µM in each case.

Take `O=C(NC1(C(F)(F)F)CC1)c1cccc(-c2cnc3[nH]c(-c4ccccc4)cc3c2)n1` [Compound P-0156, 6-(2-phenyl-1H-pyrrolo[2,3-b]pyridin-5-yl)-N-[1-(trifluoromethyl)cyclopropyl]pyridine-2-carboxamide]: the IC50 at FLT3-D835Y and on FLT3-ITD was 0.0001 to 10 µM each time.

In the case of `CC(C)(C#N)CNC(=O)c1cccc(-c2cnc3[nH]c(-c4ccccc4)c(Br)c3c2)n1` [Compound P-0126, 6-(3-bromo-2-phenyl-1H-pyrrolo[2,3-b]pyridin-5-yl)-N-(2-cyano-2-methyl-propyl)pyridine-2-carboxamide], the IC50 on FLT3-D835Y and at FLT3-ITD was 0.0001 to 10 µM each time.

Take `CC(C)(C#N)NC(=O)c1cccc(-c2cnc3[nH]c(C4=CCNCC4)cc3c2)n1` [Compound P-0182, N-(1-cyano-1-methyl-ethyl)-6-[2-(1,2,3,6-tetrahydropyridin-4-yl)-1H-pyrrolo[2,3-b]pyridin-5-yl]pyridine-2-carboxamide]: the IC50 at FLT3-D835Y and on FLT3-ITD was 0.0001 to 10 µM each time.

Consider `N#C[C@H]1CCN(C(=O)c2cccc(-c3cnc4[nH]c(-c5ccccc5)cc4c3)n2)C1` [Compound P-0117, (3S)-1-[6-(2-phenyl-1H-pyrrolo[2,3-b]pyridin-5-yl)pyridine-2-carbonyl]pyrrolidine-3-carbonitrile], for which the IC50 on FLT3-D835Y and on FLT3-ITD was 0.0001 to 10 µM in each case.

For the compound `N#CC1CCN(C(=O)c2cccc(-c3cnc4[nH]c(-c5cnn(C(F)F)c5)cc4c3)n2)C1` (centres unmarked) [Compound P-0134, 1-[6-[2-[1-(difluoromethyl)pyrazol-4-yl]-1H-pyrrolo[2,3-b]pyridin-5-yl]pyridine-2-carbonyl]pyrrolidine-3-carbonitrile], the IC50 at FLT3-D835Y and on FLT3-ITD was 0.0001 to 10 µM each time.

As for `CC(C)(C#N)NC(=O)c1cccc(-c2cnc3[nH]c(C4=CCN(C(=O)C5CC5)CC4)cc3c2)n1` [Compound P-0181, N-(1-cyano-1-methyl-ethyl)-6-[2-[1-(cyclopropanecarbonyl)-3,6-dihydro-2H-pyridin-4-yl]-1H-pyrrolo[2,3-b]pyridin-5-yl]pyridine-2-carboxamide], the IC50 on FLT3-D835Y and on FLT3-ITD was 0.0001 to 10 µM in each case.

Consider `COC1CCN(C(=O)c2cccc(-c3cnc4[nH]c(-c5ccccc5)cc4c3)n2)C1` (centres unmarked) [Compound P-0095, (3-methoxypyrrolidin-1-yl)-[6-(2-phenyl-1H-pyrrolo[2,3-b]pyridin-5-yl)-2-pyridyl]methanone], for which the IC50 on FLT3-D835Y and on FLT3-ITD was 0.0001 to 10 µM each time.

For `CC(C)(C#N)NC(=O)c1cccc(-c2cnc3[nH]c(-c4cnn(C(F)F)c4)cc3c2)n1` [Compound P-0164, N-(2-cyanopropan-2-yl)-6-(2-(1-(difluoromethyl)-1H-pyrazol-4-yl)-1H-pyrrolo[2,3-b]pyridin-5-yl)picolinamide], the IC50 at FLT3-D835Y and at FLT3-ITD was 0.0001 to 10 µM each time.

On to `Cn1cc(-c2cc3cc(-c4cccc(C(=O)NCC(C)(C)C#N)n4)cnc3[nH]2)ccc1=O` [Compound P-0155, N-(2-cyano-2-methyl-propyl)-6-[2-(1-methyl-6-oxo-3-pyridyl)-1H-pyrrolo[2,3-b]pyridin-5-yl]pyridine-2-carboxamide], for which the IC50 at FLT3-D835Y and at FLT3-ITD was 0.0001 to 10 µM in each case.

In the case of `Cc1nc(C(C)C)sc1-c1cc2cc(-c3cccc(C(=O)NC(C)(C)C#N)n3)cnc2[nH]1` [Compound P-0169, N-(1-cyano-1-methyl-ethyl)-6-[2-(2-isopropyl-4-methyl-thiazol-5-yl)-1H-pyrrolo[2,3-b]pyridin-5-yl]pyridine-2-carboxamide], the IC50 on FLT3-D835Y and on FLT3-ITD was 0.0001 to 10 µM throughout.

Turning to `CC(C)(C#N)CNC(=O)c1cccc(-c2cnc3[nH]c(C4=CCS(=O)(=O)CC4)cc3c2)n1` [Compound P-0160, N-(2-cyano-2-methyl-propyl)-6-[2-(1,1-dioxo-3,6-dihydro-2H-thiopyran-4-yl)-1H-pyrrolo[2,3-b]pyridin-5-yl]pyridine-2-carboxamide], the IC50 on FLT3-D835Y and at FLT3-ITD was 0.0001 to 10 µM in each case.

Regarding `CC(C)(NC(=O)c1cccc(-c2cnc3[nH]c(C4=CCN(C(=O)C5CC5)C4)cc3c2)n1)C(N)=O` [Compound P-0179, N-(2-amino-1,1-dimethyl-2-oxo-ethyl)-6-[2-[1-(cyclopropanecarbonyl)-2,5-dihydropyrrol-3-yl]-1H-pyrrolo[2,3-b]pyridin-5-yl]pyridine-2-carboxamide], the half-maximal inhibitory concentration (IC50) at FLT3-D835Y and on FLT3-ITD was 0.0001 to 10 µM each time.

Regarding `CC(C)(C#N)CNC(=O)c1cccc(-c2cnc3[nH]c(C4=CCN(C(=O)C5CC5)C4)cc3c2)n1` [Compound P-0141, N-(2-cyano-2-methyl-propyl)-6-[2-[1-(cyclopropanecarbonyl)-2,5-dihydropyrrol-3-yl]-1H-pyrrolo[2,3-b]pyridin-5-yl]pyridine-2-carboxamide], the IC50 on FLT3-D835Y and at FLT3-ITD was 0.0001 to 10 µM in each case.

Consider `COCCn1cc(-c2cc3cc(-c4cccc(C(=O)NC(C)(C)C#N)n4)cnc3[nH]2)cn1` [Compound P-0172, N-(1-cyano-1-methyl-ethyl)-6-[2-[1-(2-methoxyethyl)pyrazol-4-yl]-1H-pyrrolo[2,3-b]pyridin-5-yl]pyridine-2-carboxamide], for which the concentration for half-maximal inhibition (IC50) at FLT3-D835Y and on FLT3-ITD was 0.0001 to 10 µM throughout.

Turning to `N#CC1CCN(C(=O)c2cccc(-c3cnc4[nH]c(-c5ccccc5)cc4c3)n2)C1` (centres unmarked) [Compound P-0105, 1-[6-(2-phenyl-1H-pyrrolo[2,3-b]pyridin-5-yl)pyridine-2-carbonyl]pyrrolidine-3-carbonitrile], the IC50 on FLT3-D835Y and at FLT3-ITD was 0.0001 to 10 µM in each case.

For the compound `N#CC1(NC(=O)c2cccc(-c3cnc4[nH]c(-c5ccccc5)cc4c3)n2)CCC1` [Compound P-0114, N-(1-cyanocyclobutyl)-6-(2-phenyl-1H-pyrrolo[2,3-b]pyridin-5-yl)pyridine-2-carboxamide], the 50% inhibitory concentration (IC50) on FLT3-D835Y and on FLT3-ITD was 0.0001 to 10 µM throughout.

Consider `CN(CCC#N)C(=O)c1cccc(-c2cnc3[nH]c(-c4ccccc4)cc3c2)n1` [Compound P-0119, N-(2-cyanoethyl)-N-methyl-6-(2-phenyl-1H-pyrrolo[2,3-b]pyridin-5-yl)pyridine-2-carboxamide], for which the IC50 on FLT3-D835Y and on FLT3-ITD was 0.0001 to 10 µM in each case.
